Data: PubChem BioAssay (NCI)
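All cell lines were grown in 96-well plates and treated with compound for 48 hours. The concentration for 50% growth inhibition is given as GI50. TGI: total growth inhibition.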

How the values were obtained:
Test in all cases: inhibition of tumour cell growth, NCI panel, 48 h
DU-145 prostate = test system: DU-145 prostate
KM12 colon = test system: KM12 colon
MALME-3M melanoma = test system: MALME-3M melanoma
MDA-MB-435 = test system: MDA-MB-435
PC-3 prostate = test system: PC-3 prostate
SK-MEL-28 melanoma = test system: SK-MEL-28 melanoma
UACC-62 melanoma = test system: UACC-62 melanoma
UO-31 renal = test system: UO-31 renal
T-47D breast = test system: T-47D breast
HS 578T breast = test system: HS 578T breast

| Compound | GI50 (DU-145 prostate) | TGI (DU-145 prostate) | GI50 (KM12 colon) | TGI (KM12 colon) | GI50 (MALME-3M melanoma) | TGI (MALME-3M melanoma) | GI50 (MDA-MB-435) | TGI (MDA-MB-435) | GI50 (PC-3 prostate) | TGI (PC-3 prostate) | GI50 (SK-MEL-28 melanoma) | TGI (SK-MEL-28 melanoma) | GI50 (UACC-62 melanoma) | TGI (UACC-62 melanoma) | GI50 (UO-31 renal) | TGI (UO-31 renal) | TGI (T-47D breast) | GI50 (HS 578T breast) | TGI (HS 578T breast) | GI50 (T-47D breast) |
| --- | --- | --- | --- | --- | --- | --- | --- | --- | --- | --- | --- | --- | --- | --- | --- | --- | --- | --- | --- | --- |
| Cn1cnnc1[S-].[Au+].c1ccc([PH+](c2ccccc2)c2ccccc2)cc1 | 1.34 µM | 2.66 µM | 1.71 µM | 3.22 µM | 1.49 µM | 2.91 µM | 1.57 µM | 2.98 µM | 1.52 µM | 3.02 µM | 1.52 µM | 2.91 µM | 1.26 µM | 2.55 µM | 1.65 µM | 3.01 µM | – | – | – | – |
| C=C1CC[C@H]2C(C)=CC[C@H]3C(=C)C(=O)O[C@@H]3[C@@H]12 | – | > 100 µM | – | – | – | > 100 µM | – | > 100 µM | – | > 100 µM | – | > 100 µM | – | > 100 µM | – | > 100 µM | > 100 µM | – | – | – |
| O=C1CCC(=O)N1Sc1ccccc1 | – | – | – | > 100 µM | – | – | – | – | – | – | – | > 100 µM | – | > 100 µM | – | > 100 µM | – | – | – | – |
| O=C(O)CSc1n[nH]c(-c2ccco2)n1 | – | – | – | > 100 µM | – | > 100 µM | – | – | – | – | – | > 100 µM | – | > 100 µM | – | > 100 µM | – | – | – | – |
| CCOC(=O)c1c(NC(=O)c2ccc(Cl)cc2)sc2c(CN(C)C)c(O)ccc12 | 13.2 µM | 47.9 µM | 4.82 µM | > 100 µM | 1.85 µM | 3.86 µM | 6.62 µM | 29.9 µM | 8.44 µM | 37.3 µM | – | – | 3.41 µM | 14.8 µM | 4.88 µM | 25.7 µM | > 100 µM | 4.06 µM | 26.5 µM | 4.88 µM |
| O=NNc1ccc(S(=O)(=O)c2ccc3ccccc3c2)cn1 | – | > 100 µM | – | > 100 µM | – | > 100 µM | – | – | – | > 100 µM | – | > 100 µM | – | > 100 µM | – | 58.4 µM | > 100 µM | – | > 100 µM | – |
| Cc1ccc(OC(=O)N2C/C(=C\c3ccccc3)C(=O)/C(=C/c3ccccc3)C2)cc1 | – | > 100 µM | – | 45.7 µM | – | > 100 µM | – | – | – | > 100 µM | – | > 75 µM | – | 59 µM | – | 85 µM | > 100 µM | – | 76.5 µM | – |
| CN(C)CCN1CCc2c([nH]c3ccccc23)C1c1cccnc1 (stereo not drawn) | – | – | – | > 100 µM | – | – | – | – | – | – | – | > 100 µM | – | > 100 µM | – | > 100 µM | – | – | – | – |
| COc1ccc(C2=Nn3c(nnc3-n3nc(C)cc3C)SC2)cc1 | 0.04 µM | 1.25 µM | 0.057 µM | > 100 µM | 0.0407 µM | 70.5 µM | – | – | 0.0453 µM | > 100 µM | 0.294 µM | > 100 µM | 0.0462 µM | > 100 µM | 0.212 µM | > 100 µM | – | – | > 100 µM | – |
| Nc1ccccc1C#Cc1ccccc1C#Cc1cccs1 | 20.6 µM | 48 µM | 10.3 µM | 27.7 µM | – | – | 4.03 µM | 14.3 µM | 13.8 µM | 33 µM | 15.7 µM | 41 µM | 13.8 µM | 28.6 µM | 19.1 µM | 47.3 µM | – | – | – | – |
| COc1cc2c3c(n(CCCNCCCNCCCN)c(=O)c2cc1OC)-c1cc2c(cc1C3=O)OCO2 | > 100 µM | > 100 µM | > 100 µM | > 100 µM | – | – | 68.4 µM | > 100 µM | – | – | > 100 µM | > 100 µM | 44.1 µM | > 100 µM | > 100 µM | > 100 µM | > 100 µM | > 100 µM | > 100 µM | > 100 µM |
